# Measured values as given in PMC411064 (BMC Medicine, 2004).
# Where “and” joins values, the source holds several entries; their conditions need not be identical. Equal values may be shown once. Read-outs that look alike come from different tables or passages of the source. Marks after values point to notes of the source that are not given here.
# B1: human multidrug resistance protein 2 (MRP2) (ABCC2) (Homo sapiens) (protein)
# chain: MLEKFCNSTFWNSSFLDSPEADLPLCFEQTVLVWIPLGYLWLLAPWQLLHVYKSRTKRSSTTKLYLAKQVFVGFLLILAAIELALVLTEDSGQATVPAVRYTNPSLYLGTWLLVLLIQYSRQWCVQKNSWFLSLFWILSILCGTFQFQTLIRTLLQGDNSNLAYSCLFFISYGFQILILIFSAFSENNESSNNPSSIASFLSSITYSWYDSIILKGYKRPLTLEDVWEVDEEMKTKTLVSKFETHMKRELQKARRALQRRQEKSSQQNSGARLPGLNKNQSQSQDALVLEDVEKKKKKSGTKKDVPKSWLMKALFKTFYMVLLKSFLLKLVNDIFTFVSPQLLKLLISFASDRDTYLWIGYLCAILLFTAALIQSFCLQCYFQLCFKLGVKVRTAIMASVYKKALTLSNLARKEYTVGETVNLMSVDAQKLMDVTNFMHMLWSSVLQIVLSIFFLWRELGPSVLAGVGVMVLVIPINAILSTKSKTIQVKNMKNKDKRLKIMNEILSGIKILKYFAWEPSFRDQVQNLRKKELKNLLAFSQLQCVVIFVFQLTPVLVSVVTFSVYVLVDSNNILDAQKAFTSITLFNILRFPLSMLPMMISSMLQASVSTERLEKYLGGDDLDTSAIRHDCNFDKAMQFSEASFTWEHDSEATVRDVNLDIMAGQLVAVIGPVGSGKSSLISAMLGEMENVHGHITIKGTTAYVPQQSWIQNGTIKDNILFGTEFNEKRYQQVLEACALLPDLEMLPGGDLAEIGEKGINLSGGQKQRISLARATYQNLDIYLLDDPLSAVDAHVGKHIFNKVLGPNGLLKGKTRLLVTHSMHFLPQVDEIVVLGNGTIVEKGSYSALLAKKGEFAKNLKTFLRHTGPEEEATVHDGSEEEDDDYGLISSVEEIPEDAASITMRRENSFRRTLSRSSRSNGRHLKSLRNSLKTRNVNSLKEDEELVKGQKLIKKEFIETGKVKFSIYLEYLQAIGLFSIFFIILAFVMNSVAFIGSNLWLSAWTSDSKIFNSTDYPASQRDMRVGVYGALGLAQGIFVFIAHFWSAFGFVHASNILHKQLLNNILRAPMRFFDTTPTGRIVNRFAGDISTVDDTLPQSLRSWITCFLGIISTLVMICMATPVFTIIVIPLGIIYVSVQMFYVSTSRQLRRLDSVTRSPIYSHFSETVSGLPVIRAFEHQQRFLKHNEVRIDTNQKCVFSWITSNRWLAIRLELVGNLTVFFSALMMVIYRDTLSGDTVGFVLSNALNITQTLNWLVRMTSEIETNIVAVERITEYTKVENEAPWVTDKRPPPDWPSKGKIQFNNYQVRYRPELDLVLRGITCDIGSMEKIGVVGRTGAGKSSLTNCLFRILEAAGGQIIIDGVDIASIGLHDLREKLTIIPQDPILFSGSLRMNLDPFNNYSDEEIWKALELAHLKSFVASLQLGLSHEVTEAGGNLSIGQRQLLCLGRALLRKSKILVLDEATAAVDLETDNLIQTTIQNEFAHCTVITIAHRLHTIMDSDKVMVLDNGKIIECGSPEELLQIPGPFYFMAKEAGIENVNSTKF
# What was measured:
# [1] = cited from earlier work; for observed variability in the area under the curve: oral
# [2] = format: in vitro ADME; conditions: rat intestinal and liver s9 fractions and microsomes; data not shown
# [3] = biological target: human multidrug resistance protein 2 (MRP2) (ABCC2) (Homo sapiens, UniProt Q92887); experiment: CPT directional transport across MDCK II/MRP2 cell monolayers; format: in vitro ADME
# [4] = CPT directional transport across MDCK II/wt cell monolayers; format: in vitro ADME, dog; conditions: dog, MDCK, pH 7.4
# [5] = system: MDCK II/wt cells; experiment: as above; format: in vitro ADME, dog; conditions: MDCK II/wt
# [6] = system: Caco-2 cells; experiment: CPT directional transport across Caco-2 cell monolayers; format: in vitro ADME, human
# [7] = biological target: human P-glycoprotein (PGP) (ABCB1) (Homo sapiens, UniProt P08183); experiment: CPT directional transport across MDCK II/PGP cell monolayers; format: in vitro ADME
# [8] = system: CC[C@@]1(O)C(=O)OCc2c1cc1n(c2=O)Cc2cc3ccccc3nc2-1; experiment: as above; format: in vitro ADME, human; conditions: other: MDCK II/PGP, 37.0 °C
# [9] = system: Caco-2 cells; experiment: Inhibition of CPT efflux; format: in vitro ADME, human; conditions: for decrease of CPT secretory permeability in the presence of inhibitor: BL to AP
# [10] = read-out: Km value of etoposide; estimated in the authors' laboratory; cited from earlier work
# [11] = substrate: CC[C@@]1(O)C(=O)OCc2c1cc1n(c2=O)Cc2cc3ccccc3nc2-1; experiment: CPT directional transport across MDCK II/MRP2 cell monolayers; format: in vitro ADME, human; conditions: other: MDCK II/MRP2, 37.0 °C
# [12] = orally administered, clinical evaluation
# Sequence of human P-glycoprotein (PGP) (ABCB1) (P08183 whole entry): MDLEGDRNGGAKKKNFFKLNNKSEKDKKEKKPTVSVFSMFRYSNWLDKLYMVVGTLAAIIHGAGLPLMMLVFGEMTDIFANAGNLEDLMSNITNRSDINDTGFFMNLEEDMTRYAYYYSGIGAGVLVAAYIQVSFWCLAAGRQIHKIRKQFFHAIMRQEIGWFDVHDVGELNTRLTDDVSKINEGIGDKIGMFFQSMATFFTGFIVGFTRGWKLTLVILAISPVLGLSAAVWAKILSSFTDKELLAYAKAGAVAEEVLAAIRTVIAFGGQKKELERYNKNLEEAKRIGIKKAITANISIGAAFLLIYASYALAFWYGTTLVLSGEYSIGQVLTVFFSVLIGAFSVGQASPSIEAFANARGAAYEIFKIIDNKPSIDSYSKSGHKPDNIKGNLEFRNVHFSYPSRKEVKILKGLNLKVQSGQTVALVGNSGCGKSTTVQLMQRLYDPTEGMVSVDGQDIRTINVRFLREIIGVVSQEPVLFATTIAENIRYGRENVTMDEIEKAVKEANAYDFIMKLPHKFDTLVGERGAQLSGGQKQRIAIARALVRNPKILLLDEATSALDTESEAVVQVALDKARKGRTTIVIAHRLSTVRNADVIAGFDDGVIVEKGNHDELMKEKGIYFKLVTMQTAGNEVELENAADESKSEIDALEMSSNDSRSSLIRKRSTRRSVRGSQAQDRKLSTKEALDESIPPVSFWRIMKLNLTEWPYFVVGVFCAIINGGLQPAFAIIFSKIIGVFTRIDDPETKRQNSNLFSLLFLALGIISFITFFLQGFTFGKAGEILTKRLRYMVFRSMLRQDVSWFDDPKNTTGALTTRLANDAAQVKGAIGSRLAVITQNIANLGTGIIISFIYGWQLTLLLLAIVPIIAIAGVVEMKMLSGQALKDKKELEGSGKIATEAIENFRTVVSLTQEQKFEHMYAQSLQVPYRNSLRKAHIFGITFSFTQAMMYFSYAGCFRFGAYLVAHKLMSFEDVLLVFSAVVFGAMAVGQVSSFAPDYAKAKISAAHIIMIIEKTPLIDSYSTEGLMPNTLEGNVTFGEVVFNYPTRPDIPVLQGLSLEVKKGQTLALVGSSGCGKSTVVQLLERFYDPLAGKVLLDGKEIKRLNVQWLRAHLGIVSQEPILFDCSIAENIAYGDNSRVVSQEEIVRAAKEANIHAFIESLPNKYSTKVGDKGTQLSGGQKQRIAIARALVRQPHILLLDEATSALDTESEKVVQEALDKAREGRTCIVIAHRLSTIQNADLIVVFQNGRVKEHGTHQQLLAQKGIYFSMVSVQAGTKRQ
molecule,measurement,setting,value
"CCc1c2c(nc3ccc(OC(=O)N4CCC(N5CCCCC5)CC4)cc13)-c1cc3c(c(=O)n1C2)COC(=O)[C@]3(O)CC [CPT-11, irinotecan]",observed variability in the area under the curve,[1],50%
"CC[C@@]1(O)C(=O)OCc2c1cc1n(c2=O)Cc2cc3ccccc3nc2-1 [CPT, 20-(S)-camptothecin]",variability in the area under the curve,[1]; [12],164%
same,variability in the bioavailability,[1]; [12],10 fold
same,degradation on incubation,[2],Minimal degradation
same,"Pc carrier permeability, absorptive",[3]; AP to BL,2.5 ± 0.4 cm/s × 10^5
same,"Pc carrier permeability, secretory",[3]; BL to AP,4.3 ± 0.7 cm/s × 10^5
same,efflux ratio at 105 min,[4],~1
same,"Pc carrier permeability, absorptive",[5]; AP to BL,2.5 ± 0.7 cm/s × 10^5
same,"Pc carrier permeability, secretory",[5]; BL to AP,2.0 ± 0.2 cm/s × 10^5
same,Km,"[5]; read-out: Km, absorptive (apical to bisolateral), AP to BL",71.5 ± 9.7 µM
same,Km,"[5]; read-out: Km, secretory (bisolateral to apical), BL to AP",81.3 ± 14.6 µM
same,"Pc carrier permeability, absorptive",[6]; AP to BL,8.3 ± 0.3 cm/s × 10^5
same,"Pm passive permeability, absorptive","[6]; AP to BL, estimated as Peff at 4°C",0.43 ± 0.05^a cm/s × 10^5
same,"Pc carrier permeability, secretory",[6]; BL to AP,2.1 ± 0.1 cm/s × 10^5
same,energy of activation (Ea) of efflux,"[6]; BL to AP, Arrhenius plot, 4°C to 37°C",~ 11.3 kcal/mole
same,"Pm passive permeability, secretory","[6]; BL to AP, estimated as efflux Peff at 4°C",0.35 ± 0.04^a cm/s × 10^5
same,Pc for CPT secretory efflux,"[6]; BL to AP, weighted nonlinear regression",2.1 ± 0.1 × 10^-5 cm/s
same,Km,"[6]; read-out: Km, secretory (bisolateral to apical), BL to AP, weighted nonlinear regression",132 µM and 133 µM
same,"Pc carrier permeability, absorptive",[7]; AP to BL,2.2 ± 0.5 cm/s × 10^5
same,"Pc carrier permeability, secretory",[7]; BL to AP,4.1 ± 0.4 cm/s × 10^5
human P-glycoprotein (PGP) (ABCB1) (Homo sapiens),Km,[8]; AP to BL,69.7 ± 7.6 µM
same,Km,[8]; BL to AP,36.3 ± 7.5 µM
COc1cc2c(cc1OC)CN(CCc1ccc(NC(=O)c3cccc4c(=O)c5cccc(OC)c5[nH]c34)cc1)CC2 [GF120918],decrease of CPT secretory permeability in the presence of inhibitor,[9],52.5%
same,reduction of CPT efflux,"[9]; GF120918 0.4 μM, CPT 10 μM",2.1 fold
same,effect of increasing inhibitor concentration on CPT efflux,"[9]; GF120918 0.8–1.2 μM, data not shown",not further reduced
"CC[C@@]1(O)C(=O)OCc2c1cc1n(c2=O)Cc2cc3c(CN(C)C)c(O)ccc3nc2-1 [TPT, topotecan]",observed variability in the area under the curve,[1],41%
COc1cc([C@@H]2c3cc4c(cc3[C@@H](O[C@@H]3O[C@@H]5CO[C@@H](C)O[C@H]5[C@H](O)[C@H]3O)[C@H]3COC(=O)[C@H]23)OCO4)cc(OC)c1O [etoposide],decrease of CPT secretory permeability in the presence of inhibitor,[9],25.6%
same,reduction of CPT efflux permeability,"[9]; etoposide 200 μM, CPT 10 μM",1.3 fold
same,Km,[10],~213 µM
B1,Km,[11]; AP to BL,101.2 ± 17.8 µM
same,Km,[11]; BL to AP,65.8 ± 6.7 µM
